Measurements from paper doi:10.1101/2023.03.24.534094v2 (biorxiv, 2023).
Where two headings read alike, the source gives them in different places. Values belong to the molecule of their own block, whether it stands above or below them.

Assays:
Assay in all cases: biochemical
[1] = molecular target: BIKE (Homo sapiens, UniProt Q9NSY1)
[2] = molecular target: Erk2 (Homo sapiens, UniProt P28482)
[3] = molecular target: T1, GAK (Homo sapiens, UniProt O14976)
T1 sequence (O14976 1-1311): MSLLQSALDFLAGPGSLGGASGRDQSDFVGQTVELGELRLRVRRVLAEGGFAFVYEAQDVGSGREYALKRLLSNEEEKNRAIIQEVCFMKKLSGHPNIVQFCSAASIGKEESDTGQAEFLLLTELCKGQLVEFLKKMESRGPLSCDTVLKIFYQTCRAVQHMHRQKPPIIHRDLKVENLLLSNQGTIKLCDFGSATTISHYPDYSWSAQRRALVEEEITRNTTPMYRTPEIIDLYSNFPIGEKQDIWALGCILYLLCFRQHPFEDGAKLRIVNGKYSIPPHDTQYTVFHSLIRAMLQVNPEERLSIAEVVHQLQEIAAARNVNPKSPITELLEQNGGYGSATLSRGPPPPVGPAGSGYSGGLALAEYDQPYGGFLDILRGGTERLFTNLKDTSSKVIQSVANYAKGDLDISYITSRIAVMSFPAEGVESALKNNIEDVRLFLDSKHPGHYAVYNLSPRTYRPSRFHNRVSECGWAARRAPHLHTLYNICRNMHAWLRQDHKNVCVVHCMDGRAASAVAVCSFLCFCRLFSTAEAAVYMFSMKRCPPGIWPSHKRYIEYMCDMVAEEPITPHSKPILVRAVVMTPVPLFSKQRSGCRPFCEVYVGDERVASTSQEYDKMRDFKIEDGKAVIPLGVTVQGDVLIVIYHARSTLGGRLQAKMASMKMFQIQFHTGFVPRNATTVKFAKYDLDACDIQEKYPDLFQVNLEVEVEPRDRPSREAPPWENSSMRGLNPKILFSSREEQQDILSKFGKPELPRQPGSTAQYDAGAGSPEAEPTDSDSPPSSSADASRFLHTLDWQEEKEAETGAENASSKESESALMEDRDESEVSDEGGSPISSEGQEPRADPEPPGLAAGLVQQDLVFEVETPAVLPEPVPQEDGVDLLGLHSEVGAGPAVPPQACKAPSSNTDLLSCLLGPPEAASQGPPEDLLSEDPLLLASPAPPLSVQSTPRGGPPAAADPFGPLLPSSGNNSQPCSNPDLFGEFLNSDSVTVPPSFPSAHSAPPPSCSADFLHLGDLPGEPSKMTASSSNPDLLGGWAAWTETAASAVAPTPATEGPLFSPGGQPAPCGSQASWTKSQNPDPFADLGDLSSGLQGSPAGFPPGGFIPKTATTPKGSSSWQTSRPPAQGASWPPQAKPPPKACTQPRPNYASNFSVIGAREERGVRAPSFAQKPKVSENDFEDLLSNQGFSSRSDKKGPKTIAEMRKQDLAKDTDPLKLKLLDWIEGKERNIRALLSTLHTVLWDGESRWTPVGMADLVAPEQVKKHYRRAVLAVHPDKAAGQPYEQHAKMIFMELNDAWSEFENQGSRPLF

[4] = molecular target: JNK2 (Homo sapiens, UniProt P45984)
[5] = molecular target: T2, MAP3K5 (Homo sapiens, UniProt Q99683)
T2 sequence (Q99683 1-1374): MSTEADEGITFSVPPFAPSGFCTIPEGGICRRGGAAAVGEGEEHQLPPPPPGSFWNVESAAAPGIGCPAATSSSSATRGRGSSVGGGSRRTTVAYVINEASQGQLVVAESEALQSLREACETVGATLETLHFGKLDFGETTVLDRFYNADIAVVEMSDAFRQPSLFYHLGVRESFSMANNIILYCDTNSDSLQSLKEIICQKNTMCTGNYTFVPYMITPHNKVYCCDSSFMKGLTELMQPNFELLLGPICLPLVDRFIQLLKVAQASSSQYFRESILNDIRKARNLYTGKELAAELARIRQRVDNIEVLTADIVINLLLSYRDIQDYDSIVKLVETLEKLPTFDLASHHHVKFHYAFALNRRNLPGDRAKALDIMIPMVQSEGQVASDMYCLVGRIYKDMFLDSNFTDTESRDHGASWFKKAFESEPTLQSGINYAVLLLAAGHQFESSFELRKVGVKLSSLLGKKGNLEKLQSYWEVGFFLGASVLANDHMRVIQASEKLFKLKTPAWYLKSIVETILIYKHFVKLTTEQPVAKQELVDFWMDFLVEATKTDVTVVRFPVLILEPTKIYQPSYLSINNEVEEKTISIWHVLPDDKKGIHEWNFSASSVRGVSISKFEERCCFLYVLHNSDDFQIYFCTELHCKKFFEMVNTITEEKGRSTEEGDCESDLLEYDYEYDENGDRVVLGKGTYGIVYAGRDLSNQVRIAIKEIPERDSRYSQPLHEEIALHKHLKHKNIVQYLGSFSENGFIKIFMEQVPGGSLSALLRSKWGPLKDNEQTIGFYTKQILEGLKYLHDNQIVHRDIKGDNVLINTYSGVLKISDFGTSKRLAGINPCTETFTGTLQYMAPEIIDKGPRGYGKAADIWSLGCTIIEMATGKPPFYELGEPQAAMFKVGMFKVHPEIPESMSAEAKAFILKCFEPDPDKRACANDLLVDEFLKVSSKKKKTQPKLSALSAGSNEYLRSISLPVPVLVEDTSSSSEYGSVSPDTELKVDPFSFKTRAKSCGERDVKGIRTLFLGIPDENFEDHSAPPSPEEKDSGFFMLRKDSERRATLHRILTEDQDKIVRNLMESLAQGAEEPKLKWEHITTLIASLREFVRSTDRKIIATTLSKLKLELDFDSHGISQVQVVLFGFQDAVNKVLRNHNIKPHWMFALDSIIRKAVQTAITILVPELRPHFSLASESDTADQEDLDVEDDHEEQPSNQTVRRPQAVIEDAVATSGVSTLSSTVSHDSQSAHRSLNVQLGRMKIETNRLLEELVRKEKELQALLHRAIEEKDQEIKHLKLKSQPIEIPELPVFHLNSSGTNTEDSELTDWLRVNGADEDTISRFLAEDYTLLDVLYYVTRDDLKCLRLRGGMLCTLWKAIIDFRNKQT

Erk2, sequence (P28482 whole entry): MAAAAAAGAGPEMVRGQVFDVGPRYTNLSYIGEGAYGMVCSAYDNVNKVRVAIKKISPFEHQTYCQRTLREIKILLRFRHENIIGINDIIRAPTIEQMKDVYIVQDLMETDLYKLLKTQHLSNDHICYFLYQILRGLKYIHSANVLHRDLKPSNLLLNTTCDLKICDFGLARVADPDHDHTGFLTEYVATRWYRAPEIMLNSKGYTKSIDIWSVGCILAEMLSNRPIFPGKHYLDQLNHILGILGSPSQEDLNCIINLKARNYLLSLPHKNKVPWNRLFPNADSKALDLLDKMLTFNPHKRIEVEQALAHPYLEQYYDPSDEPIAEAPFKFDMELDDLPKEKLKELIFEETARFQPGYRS
BIKE, sequence (Q9NSY1 whole entry): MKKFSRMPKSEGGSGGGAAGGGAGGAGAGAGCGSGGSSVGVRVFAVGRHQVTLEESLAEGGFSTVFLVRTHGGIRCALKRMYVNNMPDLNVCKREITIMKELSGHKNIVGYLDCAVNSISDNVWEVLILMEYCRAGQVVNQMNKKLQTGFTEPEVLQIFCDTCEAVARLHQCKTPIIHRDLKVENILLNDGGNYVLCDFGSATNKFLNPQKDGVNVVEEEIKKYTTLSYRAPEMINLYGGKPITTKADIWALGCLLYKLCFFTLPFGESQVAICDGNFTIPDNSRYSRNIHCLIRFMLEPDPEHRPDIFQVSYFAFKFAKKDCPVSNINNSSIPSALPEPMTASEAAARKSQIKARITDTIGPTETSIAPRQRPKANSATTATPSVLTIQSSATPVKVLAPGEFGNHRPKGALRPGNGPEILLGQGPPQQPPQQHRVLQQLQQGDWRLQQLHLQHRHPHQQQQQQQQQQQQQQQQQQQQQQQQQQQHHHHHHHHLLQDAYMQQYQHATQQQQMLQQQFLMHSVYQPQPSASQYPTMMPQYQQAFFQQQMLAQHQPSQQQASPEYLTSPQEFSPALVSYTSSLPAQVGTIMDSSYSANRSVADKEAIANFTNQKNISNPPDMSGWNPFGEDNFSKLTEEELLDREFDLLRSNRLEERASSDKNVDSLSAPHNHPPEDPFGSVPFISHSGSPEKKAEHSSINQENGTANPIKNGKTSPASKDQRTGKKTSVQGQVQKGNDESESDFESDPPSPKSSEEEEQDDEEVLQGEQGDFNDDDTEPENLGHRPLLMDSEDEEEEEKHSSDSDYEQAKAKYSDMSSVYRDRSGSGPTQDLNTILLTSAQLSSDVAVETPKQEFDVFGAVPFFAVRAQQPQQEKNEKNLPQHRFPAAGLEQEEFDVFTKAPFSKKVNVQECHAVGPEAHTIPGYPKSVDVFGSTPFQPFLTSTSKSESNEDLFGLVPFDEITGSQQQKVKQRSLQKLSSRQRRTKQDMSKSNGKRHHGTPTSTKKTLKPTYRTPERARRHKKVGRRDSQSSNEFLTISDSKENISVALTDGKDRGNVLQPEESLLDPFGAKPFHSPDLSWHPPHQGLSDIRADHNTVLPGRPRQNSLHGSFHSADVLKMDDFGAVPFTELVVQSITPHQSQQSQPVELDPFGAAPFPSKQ
JNK2, sequence (P45984 whole entry): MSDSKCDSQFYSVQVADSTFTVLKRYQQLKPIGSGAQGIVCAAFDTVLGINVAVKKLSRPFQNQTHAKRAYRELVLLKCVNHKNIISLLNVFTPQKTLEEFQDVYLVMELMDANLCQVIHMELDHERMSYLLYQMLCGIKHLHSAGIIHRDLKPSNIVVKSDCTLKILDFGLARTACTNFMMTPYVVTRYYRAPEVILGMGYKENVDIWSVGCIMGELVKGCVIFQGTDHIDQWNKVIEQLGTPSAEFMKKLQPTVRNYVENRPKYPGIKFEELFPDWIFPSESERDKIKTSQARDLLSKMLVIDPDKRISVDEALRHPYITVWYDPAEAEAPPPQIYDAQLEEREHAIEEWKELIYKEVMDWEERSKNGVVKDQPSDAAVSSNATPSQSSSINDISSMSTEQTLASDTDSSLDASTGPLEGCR

Structure (SMILES): CNc1ncc2cc(-c3cc(F)ccc3F)c(=O)n(CCCCN)c2n1 [compound 5, 8-(4-Aminobutyl)-6-(2,5-difluorophenyl)-2-(methylamino)pyrido[2,3-d]pyrimidin-7(8H)-one]
ΔTm at 10 µM ([1]; read-out: dTm MR22 (5)): 2.1 °C
ΔTm at 10 µM ([2]; read-out: dTm MR22 (5)): -3.7 °C
ΔTm at 10 µM ([3]; read-out: dTm MR22 (5)): 5.4 °C
ΔTm at 10 µM ([4]; read-out: dTm MR22 (5)): 0.2 °C
ΔTm at 10 µM ([5]; read-out: dTm MR22 (5)): 1 °C

Structure (SMILES): CNc1ncc2cc(-c3ccccc3Cl)c(=O)n(CCCCN)c2n1 [compound 4, 8-(4-Aminobutyl)-6-(2-chlorophenyl)-2-(methylamino)pyrido[2,3-d]pyrimidin-7(8H)-one]
ΔTm at 10 µM ([1]; read-out: dTm MR21 (4)): 3.1 °C
ΔTm at 10 µM ([2]; read-out: dTm MR21 (4)): 1 °C
ΔTm at 10 µM ([3]; read-out: dTm MR21 (4)): 6.6 °C
ΔTm at 10 µM ([4]; read-out: dTm MR21 (4)): -0.1 °C
ΔTm at 10 µM ([5]; read-out: dTm MR21 (4)): 2.9 °C

Structure (SMILES): CNc1ncc2cc(-c3ccc(-c4cccc(C)n4)cc3Cl)c(=O)n(CC3OCC(N)CO3)c2n1 (stereo not shown) [compound 2, G-5555]
dTm G-5555 (2) ([1]; 10 µM, binder): 2.5 °C
dTm G-5555 (2) ([2]; 10 µM, binder): 1.4 °C
dTm G-5555 (2) ([3]; 10 µM, binder): 6.1 °C
dTm G-5555 (2) ([4]; 10 µM, binder): 0.6 °C
dTm G-5555 (2) ([5]; 10 µM, binder): 8.9 °C

Next, values leading:

ΔTm at 10 µM ([1]; read-out: dTm 7): 0.7 °C
ΔTm at 10 µM ([2]; read-out: dTm 7): 0 °C
ΔTm at 10 µM ([3]; read-out: dTm 7): 2.6 °C
ΔTm at 10 µM ([4]; read-out: dTm 7): 1.1 °C
ΔTm at 10 µM ([5]; read-out: dTm 7): 0.8 °C
Structure (SMILES): CNc1ncc2cc(-c3cc(Br)ccc3Cl)c(=O)n(C[C@H]3OC[C@H](N)CO3)c2n1 [compound 7, 8-(((2r,5r)-5-Amino-1,3-dioxan-2-yl)methyl)-6-(5-bromo-2-chlorophenyl)-2-(methylamino)pyrido[2,3-d]pyrimidin-7(8H)-one]

ΔTm at 10 µM ([1]; read-out: dTm 6): 0.6 °C
ΔTm at 10 µM ([2]; read-out: dTm 6): 0 °C
ΔTm at 10 µM ([3]; read-out: dTm 6): 4.1 °C
ΔTm at 10 µM ([4]; read-out: dTm 6): -0.4 °C
ΔTm at 10 µM ([5]; read-out: dTm 6): 0.9 °C
Structure (SMILES): CNc1ncc2cc(-c3cc(Br)ccc3Cl)c(=O)n(CCCCN)c2n1 [compound 6, 8-(4-Aminobutyl)-6-(5-bromo-2-chlorophenyl)-2-(methylamino)pyrido[2,3-d]pyrimidin-7(8H)-one]
